PubChem BioAssay AID1259407 (Chemical Carcinogenesis Research Information System (CCRIS), 2018)
Activity calls are given as the source filed them. No rule for the calls is given here.

System: CCRIS mutagenicity, Ames/micronucleus/aberration tests
Experiment: CCRIS mutagenicity studies
[1] = Test System: AMES SALMONELLA TYPHIMURIUM, Strain/Indicator: TA98, Metabolic Activation: NONE, Method: STANDARD PLATE
[2] = Test System: AMES SALMONELLA TYPHIMURIUM, Strain/Indicator: TA100, Metabolic Activation: NONE, Method: STANDARD PLATE
[3] = Test System: AMES SALMONELLA TYPHIMURIUM, Strain/Indicator: TA1535, Metabolic Activation: NONE, Method: STANDARD PLATE
[4] = Test System: MOUSE LYMPHOMA, Strain/Indicator: L5178Y (TK+/TK-), Metabolic Activation: NONE, Method: SUSPENSION/PLATE
[5] = Test System: MOUSE LYMPHOMA, Strain/Indicator: L5178Y (TK+/TK-), Metabolic Activation: RAT, LIVER, S-9, AROCLOR 1254, Method: SUSPENSION/PLATE
[6] = Test System: AMES SALMONELLA TYPHIMURIUM, Strain/Indicator: TA100, Metabolic Activation: NONE, Method: PREINCUBATION
[7] = Test System: AMES SALMONELLA TYPHIMURIUM, Strain/Indicator: TA98, Metabolic Activation: RAT, LIVER, S-9, AROCLOR 1254, Method: STANDARD PLATE
[8] = Test System: AMES SALMONELLA TYPHIMURIUM, Strain/Indicator: TA100, Metabolic Activation: RAT, LIVER, S-9, AROCLOR 1254, Method: STANDARD PLATE

CCCCCCCCCCCC(=O)OOC(=O)CCCCCCCCCCC
mutagenic call (Test System: AMES SALMONELLA TYPHIMURIUM, Strain/Indicator: TA98, Metabolic Activation: HAMSTER, LIVER, S-9, AROCLOR 1254 (10%), Method: STANDARD PLATE): inactive; negative
mutagenic call [1]: inactive; negative
mutagenic call (Test System: AMES SALMONELLA TYPHIMURIUM, Strain/Indicator: TA98, Metabolic Activation: RAT, LIVER, S-9, AROCLOR 1254 (10%), Method: STANDARD PLATE): inactive; negative
mutagenic call (Test System: AMES SALMONELLA TYPHIMURIUM, Strain/Indicator: TA100, Metabolic Activation: HAMSTER, LIVER, S-9, AROCLOR 1254 (10%), Method: STANDARD PLATE): inactive; negative
mutagenic call [2]: inactive; negative
mutagenic call (Test System: AMES SALMONELLA TYPHIMURIUM, Strain/Indicator: TA100, Metabolic Activation: RAT, LIVER, S-9, AROCLOR 1254 (10%), Method: STANDARD PLATE): inactive; negative
mutagenic call (Test System: AMES SALMONELLA TYPHIMURIUM, Strain/Indicator: TA1535, Metabolic Activation: HAMSTER, LIVER, S-9, AROCLOR 1254 (10%), Method: STANDARD PLATE): inactive; negative
mutagenic call [3]: inactive; negative
mutagenic call (Test System: AMES SALMONELLA TYPHIMURIUM, Strain/Indicator: TA1535, Metabolic Activation: RAT, LIVER, S-9, AROCLOR 1254 (10%), Method: STANDARD PLATE): inactive; negative
mutagenic call (Test System: AMES SALMONELLA TYPHIMURIUM, Strain/Indicator: TA1537, Metabolic Activation: HAMSTER, LIVER, S-9, AROCLOR 1254 (10%), Method: STANDARD PLATE): inactive; negative
mutagenic call (Test System: AMES SALMONELLA TYPHIMURIUM, Strain/Indicator: TA1537, Metabolic Activation: NONE, Method: STANDARD PLATE): inactive; negative
mutagenic call (Test System: AMES SALMONELLA TYPHIMURIUM, Strain/Indicator: TA1537, Metabolic Activation: RAT, LIVER, S-9, AROCLOR 1254 (10%), Method: STANDARD PLATE): inactive; negative
mutagenic call (Test System: AMES SALMONELLA TYPHIMURIUM, Strain/Indicator: TA1538, Metabolic Activation: HAMSTER, LIVER, S-9, AROCLOR 1254 (10%), Method: STANDARD PLATE): inactive; negative
mutagenic call (Test System: AMES SALMONELLA TYPHIMURIUM, Strain/Indicator: TA1538, Metabolic Activation: NONE, Method: STANDARD PLATE): inactive; negative
mutagenic call (Test System: AMES SALMONELLA TYPHIMURIUM, Strain/Indicator: TA1538, Metabolic Activation: RAT, LIVER, S-9, AROCLOR 1254 (10%), Method: STANDARD PLATE): inactive; negative
mutagenic call [4]: inactive; negative. reevaluation of results: inconclusive
mutagenic call [5]: inactive; negative. reevaluation of results: inconclusive

NS(=O)(=O)c1cc2c(cc1Cl)NCNS2(=O)=O
mutagenic call (End Point: IN VITRO CHROMOSOMAL ABERRATIONS, Test System: CHINESE HAMSTER OVARY CELLS, Metabolic Activation: NONE): inactive; negative
mutagenic call (End Point: IN VITRO CHROMOSOMAL ABERRATIONS, Test System: CHINESE HAMSTER OVARY CELLS, Metabolic Activation: RAT, LIVER, S-9, AROCLOR 1254): inactive; negative
mutagenic call (End Point: IN VITRO CHROMOSOMAL ABERRATIONS, Test System: CHO CELLS, Metabolic Activation: NONE): inactive; negative
mutagenic call (End Point: IN VITRO CHROMOSOMAL ABERRATIONS, Test System: CHO CELLS, Metabolic Activation: RAT, LIVER, S-9, AROCLOR 1254): inactive; negative
mutagenic call (Test System: AMES SALMONELLA TYPHIMURIUM, Strain/Indicator: TA98, Metabolic Activation: HAMSTER, LIVER, S-9, AROCLOR 1254, Method: PREINCUBATION): inactive; negative
mutagenic call (Test System: AMES SALMONELLA TYPHIMURIUM, Strain/Indicator: TA98, Metabolic Activation: RAT, LIVER, S-9, AROCLOR 1254, Method: PREINCUBATION): inactive; negative
mutagenic call (Test System: AMES SALMONELLA TYPHIMURIUM, Strain/Indicator: TA100, Metabolic Activation: HAMSTER, LIVER, S-9, AROCLOR 1254, Method: PREINCUBATION): inactive; negative
mutagenic call [6]: inactive; negative
mutagenic call (Test System: AMES SALMONELLA TYPHIMURIUM, Strain/Indicator: TA100, Metabolic Activation: RAT, LIVER, S-9, AROCLOR 1254, Method: PREINCUBATION): inactive; negative
mutagenic call (Test System: AMES SALMONELLA TYPHIMURIUM, Strain/Indicator: TA1535, Metabolic Activation: HAMSTER, LIVER, S-9, AROCLOR 1254, Method: PREINCUBATION): inactive; negative
mutagenic call (Test System: AMES SALMONELLA TYPHIMURIUM, Strain/Indicator: TA1535, Metabolic Activation: NONE, Method: PREINCUBATION): inactive; negative
mutagenic call (Test System: AMES SALMONELLA TYPHIMURIUM, Strain/Indicator: TA1535, Metabolic Activation: RAT, LIVER, S-9, AROCLOR 1254, Method: PREINCUBATION): inactive; negative
mutagenic call (Test System: AMES SALMONELLA TYPHIMURIUM, Strain/Indicator: TA1537, Metabolic Activation: HAMSTER, LIVER, S-9, AROCLOR 1254, Method: PREINCUBATION): inactive; negative
mutagenic call (Test System: AMES SALMONELLA TYPHIMURIUM, Strain/Indicator: TA1537, Metabolic Activation: RAT, LIVER, S-9, AROCLOR 1254, Method: PREINCUBATION): inactive; negative
mutagenic call [4]: active; positive

CC(C)(C)OOC1(C)C=C(C(C)(C)C)C(=O)C(C(C)(C)C)=C1
mutagenic call (Test System: AMES SALMONELLA TYPHIMURIUM, Strain/Indicator: TA98, Metabolic Activation: NONE, Method: PREINCUBATION): inactive; negative
mutagenic call (Test System: AMES SALMONELLA TYPHIMURIUM, Strain/Indicator: TA98, Metabolic Activation: RAT, LIVER, S-9, Method: PREINCUBATION): inactive; negative
mutagenic call [6]: inactive; negative
mutagenic call (Test System: AMES SALMONELLA TYPHIMURIUM, Strain/Indicator: TA100, Metabolic Activation: RAT, LIVER, S-9, Method: PREINCUBATION): inactive; negative

O=[N+]([O-])c1ccc2[nH]ncc2c1
mutagenic call (Test System: AMES SALMONELLA TYPHIMURIUM, Strain/Indicator: TA98, Metabolic Activation: HAMSTER, LIVER, S-9, AROCLOR 1254, Method: STANDARD PLATE): active; positive
mutagenic call [1]: active; positive
mutagenic call [7]: active; positive
mutagenic call (Test System: AMES SALMONELLA TYPHIMURIUM, Strain/Indicator: TA100, Metabolic Activation: HAMSTER, LIVER, S-9, AROCLOR 1254, Method: STANDARD PLATE): active; positive
mutagenic call [2]: active; positive
mutagenic call [8]: active; positive
mutagenic call [4]: inactive; negative. reevaluation of results: negative
mutagenic call [5]: inactive; negative. reevaluation of results: negative

CC1=CC=C(C(C)C)CC1
mutagenic call (Test System: AMES SALMONELLA TYPHIMURIUM, Strain/Indicator: TA97A, Metabolic Activation: NONE, Method: STANDARD PLATE): inactive; negative
mutagenic call (Test System: AMES SALMONELLA TYPHIMURIUM, Strain/Indicator: TA97A, Metabolic Activation: RAT, LIVER, S-9, AROCLOR 1254, Method: STANDARD PLATE): inactive; negative
mutagenic call [1]: inactive; negative
mutagenic call [7]: inactive; negative
mutagenic call [2]: inactive; negative
mutagenic call [8]: inactive; negative
mutagenic call [3]: inactive; negative
mutagenic call (Test System: AMES SALMONELLA TYPHIMURIUM, Strain/Indicator: TA1535, Metabolic Activation: RAT, LIVER, S-9, AROCLOR 1254, Method: STANDARD PLATE): inactive; negative

CC(=O)Nc1ccc2c(c1)Cc1cccc(O)c1-2
mutagenic call [7]: active; positive
mutagenic call [8]: active; positive
mutagenic call (Test System: AMES SALMONELLA TYPHIMURIUM, Strain/Indicator: TA1538, Metabolic Activation: RAT, LIVER, S-9, AROCLOR 1254, Method: STANDARD PLATE): active; positive
